In patent US11026942B2, “Agent for preventing and/or treating Alzheimer's disease” (KYOTO UNIVERSITY, priority 2015, dated 2021):

Assays:
Format in all cases: cell-based, human
[1] = system: Aβ42/40 ratio; assay: Aβ42/40 ratio in FAD1 iPS cell-derived nerve cells (primary/secondary screening, dose dependency); settings: secondary screening
Source text: (§1) To perform induction from iPS cells to the cerebral cortex nerve early and with high reproducibility, iPS cells introduced with human Neurogenin 2 gene (NGN2) linked to doxycycline-inducible promoter by using PiggyBac were used (FIG. 1a, FIG. 1b, FIG. 4a and FIG. 4b). IPS cells prepared from 4 patients with familial Alzheimer's disease (FAD), 2 patients with sporadic Alzheimer's disease (SAD) and 4 healthy individuals (HC) were used. The iPS cells were established by the method described in Okita K et al., Nature.
(§2) Structural formulas (those in the form of salt or halide are also described as free form) and the general names of the candidate compounds are shown in Table 1.
(§3) To further study reproducibility of the candidate drugs obtained by the primary screening, secondary screening was conducted. In addition to Aβ40, Aβ42, Aβ42/40 ratio, Aβ38, Aβ43, sAPPα, sAPPβ were also studied and each numerical value was obtained.

[2] = system: sAPPα; assay: sAPPα in FAD1 iPS cell-derived nerve cells (secondary screening); parameters: scale not given here; settings: secondary screening, FAD1 iPS cell-derived nerve cells
Method: as §3

[3] = system: sAPPβ; assay: sAPPβ in FAD1 iPS cell-derived nerve cells (secondary screening); parameters: sAPPβ: scale not given here; settings: secondary screening, FAD1 iPS cell-derived nerve cells
Method: as §3

[4] = system: Aβ42; assay: Aβ42 in FAD1 iPS cell-derived nerve cells (primary/secondary screening, dose dependency); settings: secondary screening, FAD1 iPS cell-derived nerve cells, numerical value (Aβ change rate)
Source text: as §1, §2, §3

[5] = system: Aβ38; assay: Aβ38 in FAD1 iPS cell-derived nerve cells (secondary screening); parameters: scale not given here
Method: as §3

[6] = system: Aβ43; assay: Aβ43 in FAD1 iPS cell-derived nerve cells (secondary screening); parameters: scale not given here
Method: as §3

| Structure (SMILES) | Ratio Aβ42/40 [1] | sAPPα [2] | sAPPβ [3] | Aβ42 [4] | Aβ38 [5] | Aβ43 [6] |
| --- | --- | --- | --- | --- | --- | --- |
| CC(C)(C)NC[C@H](O)c1ccc(O)c(CO)c1 [compound 73, LEVALBUTEROL] | 0.92 | 0.74 | 0.66 | 0.84 | 0.99 | 0.91 |
| NCC(=O)CCC(=O)O [compound 47, AMINOLEVULINIC ACID] | 0.97 | 1.15 | 1.4 | 1.06 | 1.29 | 1.16 |
| CCN(CC)CCOc1ccc(/C(=C(\Cl)c2ccccc2)c2ccccc2)cc1 [compound 9, CLOMIPHENE] | 0.89 | 0.71 | 0.66 | 0.83 | 1.04 | 0.86 |
| Nc1ccn([C@@H]2O[C@H](CO)[C@@H](O)[C@@H]2O)c(=O)n1 [compound 115, CYTARABINE] | 0.9 | 0.74 | 0.69 | 0.8 | 0.99 | 0.81 |
| O=S(=O)(O)c1cc(I)c(O)c2ncccc12 [compound 35, CHINIOFON] | 0.86 | 0.71 | 0.6 | 0.83 | 1.05 | 0.79 |
| CC(C)[N+](C)(CCC(C(N)=O)(c1ccccc1)c1ccccc1)C(C)C [compound 19, ISOPROPAMIDE] | 1.24 | 0.84 | 0.74 | 0.88 | 1.09 | 0.95 |
| CN(C/C=C/C#CC(C)(C)C)Cc1cccc2ccccc12 [compound 5, TERBINAFINE] | 0.96 | 0.98 | 1.06 | 0.94 | 1.06 | 0.94 |
| Cc1cccc(C(=O)O)c1O [compound 67, HYDROXYTOLUIC ACID] | 0.86 | 0.83 | 0.66 | 0.79 | 0.92 | 0.77 |
| O=C(O)c1cc(=O)c2c(OCC(O)COc3cccc4oc(C(=O)O)cc(=O)c34)cccc2o1 [compound 11, CROMOLYN] | 0.96 | 0.89 | 0.86 | 0.88 | 1.04 | 0.82 |
| c1ccc(-c2ccc(C(c3ccccc3)n3ccnc3)cc2)cc1 (stereo not drawn) [compound 27, BIFONAZOLE] | 0.84 | 1.04 | 1.19 | 0.84 | 1.06 | 0.99 |
| CC1(C)C2CC[C@@]1(C)C(=O)C2 [compound 101, CAMPHOR (1R)] | 1.01 | 0.92 | 0.87 | 0.95 | 1.08 | 0.91 |
| CC[N+]1(C)CCCC(OC(=O)C(O)(c2ccccc2)c2ccccc2)C1 (stereo not drawn) [compound 42, PIPENZOLATE] | 1.04 | 1.11 | 1.27 | 1.09 | 1.3 | 1.12 |
| O=C(NC(Cc1cc(=O)[nH]c2ccccc12)C(=O)O)c1ccc(Cl)cc1 (stereo not drawn) [compound 71, REBAMIPIDE] | 0.85 | 0.8 | 0.66 | 0.79 | 0.97 | 0.78 |
| CCCCOc1cc(C(=O)NCCN(CC)CC)c2ccccc2n1 [compound 76, DIBUCAINE] | 0.94 | 0.77 | 0.77 | 0.9 | 0.97 | 0.98 |
| Cc1c(C(N)=O)cc([N+](=O)[O-])cc1[N+](=O)[O-] [compound 95, DINITOLMIDE] | 0.95 | 0.95 | 1.02 | 0.9 | 1 | 0.98 |
| CC[C@H](C)C(=O)O[C@H]1C[C@@H](C)C=C2C=C[C@H](C)[C@H](CC[C@@H]3C[C@@H](O)CC(=O)O3)[C@H]21 [compound 46, LOVASTATIN] | 0.88 | 1.01 | 1.06 | 0.98 | 1.17 | 1.09 |
| COc1ccccc1OCC(O)CN1CCN(CC(=O)Nc2c(C)cccc2C)CC1 (stereo not drawn) [compound 3, RANOLAZINE] | 0.89 | 0.64 | 0.61 | 0.85 | 1 | 0.82 |

| Structure (SMILES) | Ratio Aβ42/40 [1] | sAPPα [2] | sAPPβ [3] | Aβ42 [4] | Aβ38 [5] | Aβ43 [6] |
| --- | --- | --- | --- | --- | --- | --- |
| CC(C)CC(N(C)C)C1(c2ccc(Cl)cc2)CCC1 (stereo not drawn) [compound 126, SIBUTRAMINE] | 0.87 | 0.8 | 0.92 | 0.88 | 1.05 | 0.87 |
| C=CC1=C(C(=O)O)N2C(=O)[C@@H](NC(=O)/C(=N\O)c3csc(N)n3)[C@H]2SC1 [compound 63] | 0.87 | 0.82 | 1.01 | 0.79 | 0.95 | 0.9 |
| CN1CCc2cccc3c2[C@H]1Cc1ccc(O)c(O)c1-3 [compound 8, APOMORPHINE] | 1.01 | 0.8 | 0.78 | 0.93 | 1.08 | 1.01 |
| Nc1nc(=S)c2[nH]cnc2[nH]1 [compound 122, THIOGUANINE] | 0.88 | 0.95 | 0.9 | 0.69 | 0.91 | 0.92 |
| CCCCOC(=O)c1ccc(N)cc1 [compound 58, BUTAMBEN] | 1.03 | 0.79 | 0.76 | 0.95 | 1.08 | 0.95 |
| NC(=O)NC1NC(=O)NC1=O (stereo not drawn) [compound 116, ALLANTOIN] | 0.96 | 1.05 | 0.93 | 0.88 | 1.07 | 1.13 |
| O=C(O)C(O)[C@H](O)[C@@H](O)[C@H](O)[C@H](O)CO (stereo partly drawn) [compound 56, GLUCOHEPTONIC ACID] | 1.09 | 1.22 | 1.19 | 0.98 | 1.21 | 1.32 |
| CN(C)CCN(Cc1ccc(Cl)cc1)c1ccccn1 [compound 129, CHLOROPYRAMINE] | 0.81 | 0.87 | 0.86 | 0.83 | 0.96 | 0.89 |
| Oc1ccc(OCc2ccccc2)cc1 [compound 23, MONOBENZONE] | 0.91 | 0.74 | 0.56 | 0.82 | 1.05 | 0.89 |
| O=c1c2ccccc2[se]n1-c1ccccc1 [compound 45, EBSELEN] | 1.04 | 1.17 | 1.35 | 1 | 1.2 | 1.16 |
| Oc1c(Cl)cc(Cl)cc1Sc1cc(Cl)cc(Cl)c1O [compound 88, BITHIONOL] | 0.97 | 0.78 | 0.92 | 0.93 | 1.03 | 0.85 |
| NCCCCCC(=O)O [compound 49, AMINOCAPROIC ACID] | 1 | 0.99 | 0.9 | 0.96 | 1.1 | 0.97 |
| CN1CCN(C(c2ccccc2)c2ccccc2)CC1 [compound 12, CYCLIZINE] | 0.95 | 1.03 | 1.3 | 1.04 | 1.23 | 1.06 |
| CCc1cccc2c3c([nH]c12)C(CC)(CC(=O)O)OCC3 (stereo not drawn) [compound 26, ETODOLAC] | 1.13 | 0.99 | 0.98 | 0.99 | 1.11 | 1.55 |
| CCN(CC)C(C)CN1c2ccccc2Sc2ccccc21 (stereo not drawn) [compound 15, ETHOPROPAZINE] | 0.88 | 0.72 | 0.71 | 0.84 | 1.03 | 0.84 |
| C=CCSCC1Nc2cc(Cl)c(S(N)(=O)=O)cc2S(=O)(=O)N1 (stereo not drawn) [compound 117, ALTHIAZIDE] | 0.91 | 0.92 | 0.7 | 0.81 | 1.03 | 0.91 |
| COc1ccccc1N1CCN(CC(O)COc2cccc3ccccc23)CC1 (stereo not drawn) [compound 39, NAFTOPIDIL] | 0.86 | 0.73 | 0.64 | 0.86 | 1.1 | 0.9 |
